Data as given in ChEMBL document CHEMBL5244202, “Structural evolution of toll-like receptor 7/8 agonists from imidazoquinolines to imidazoles” (RSC Med Chem, 2021).

Target: T1, Toll-like receptor 7 (Homo sapiens, UniProt Q9NYK1)
T1 sequence (Q9NYK1 whole entry): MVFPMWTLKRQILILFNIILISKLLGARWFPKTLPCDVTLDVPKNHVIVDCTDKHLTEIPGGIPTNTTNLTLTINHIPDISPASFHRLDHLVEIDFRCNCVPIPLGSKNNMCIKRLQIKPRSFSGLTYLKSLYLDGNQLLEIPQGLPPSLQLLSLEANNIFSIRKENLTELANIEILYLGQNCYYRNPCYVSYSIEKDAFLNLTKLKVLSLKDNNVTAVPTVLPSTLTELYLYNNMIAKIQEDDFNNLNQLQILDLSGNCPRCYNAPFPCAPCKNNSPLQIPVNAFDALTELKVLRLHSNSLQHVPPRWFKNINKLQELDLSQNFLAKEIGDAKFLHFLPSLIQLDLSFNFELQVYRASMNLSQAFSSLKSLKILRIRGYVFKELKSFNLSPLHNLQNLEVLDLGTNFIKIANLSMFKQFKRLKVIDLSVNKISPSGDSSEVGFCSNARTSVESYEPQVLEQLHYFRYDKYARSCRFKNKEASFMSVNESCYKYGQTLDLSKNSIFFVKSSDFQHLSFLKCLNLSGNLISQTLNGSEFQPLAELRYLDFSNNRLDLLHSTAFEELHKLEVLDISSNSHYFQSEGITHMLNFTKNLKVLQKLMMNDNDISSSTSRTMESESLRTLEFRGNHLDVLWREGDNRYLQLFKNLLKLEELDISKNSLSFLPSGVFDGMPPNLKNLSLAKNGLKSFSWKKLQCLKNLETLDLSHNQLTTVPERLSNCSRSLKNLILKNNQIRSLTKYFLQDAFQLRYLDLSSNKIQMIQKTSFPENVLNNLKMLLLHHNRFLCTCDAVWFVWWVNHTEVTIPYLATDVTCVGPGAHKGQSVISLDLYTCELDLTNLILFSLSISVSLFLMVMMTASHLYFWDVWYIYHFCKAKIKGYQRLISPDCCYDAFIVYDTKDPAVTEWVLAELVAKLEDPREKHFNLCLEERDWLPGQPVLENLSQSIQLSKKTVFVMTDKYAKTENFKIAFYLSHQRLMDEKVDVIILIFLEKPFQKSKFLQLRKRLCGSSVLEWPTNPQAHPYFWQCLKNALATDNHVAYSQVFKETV
Experiment: Agonist activity at human TLR7 by reporter cell based assay
Conditions: not given

| EC50 [nM] | Structure (SMILES) |
| --- | --- |
| 1260 | CCCCc1nc2c(N)nc3ccccc3c2n1CCCN(Cc1cccc(C(=O)OC)c1)C(=O)CN1CCN(C(C)=O)CC1 |
| 158 | CCCCc1nc2c(N)nc3ccccc3c2n1CCCN(Cc1cccc(C(=O)OC)c1)C(=O)CN(C)CCOC |
| 39.8 | CCCCc1nc2c(N)nc3ccccc3c2n1CCCN(Cc1cccc(C(=O)OC)c1)C(=O)CN(C)C |
| 398 | CCCCc1nc2c(N)nc3ccccc3c2n1CCCN(Cc1cccc(C(=O)OC)c1)C(=O)CN1CCC(O)C1 (stereo unspecified) |
| 398 | CCCCc1nc2c(N)nc3ccccc3c2n1CCCN(Cc1cccc(C(=O)OC)c1)C(=O)CN1CCCOCC1 |
| 501 | CCCCc1nc2c(N)nc3ccccc3c2n1CCCN(Cc1cccc(C(=O)OC)c1)C(=O)CN1CCN(CCO)CC1 |
| 631 | CCCCc1nc2c(N)nc3ccccc3c2n1CCCN(Cc1cccc(C(=O)OC)c1)C(=O)CN1CCC(C(=O)N(C)C)CC1 |
| 200 | CCCCc1nc2c(N)nc3ccccc3c2n1CCCN(Cc1cccc(C(=O)OC)c1)C(=O)CN1CCC(OC)CC1 |
| 31.6 | CCCC[C@@H](CCO)Nc1nc(N)nc(C)c1Cc1ccc(CC(=O)OCCC2CCN(C)CC2)cc1F |
| 126 | CCCCc1nc2c(N)nc3ccccc3c2n1CCCN(Cc1cccc(C(=O)OC)c1)C(=O)CN(C)C1CCOCC1 |
| 501 | CCCCc1nc2c(N)nc3ccccc3c2n1CCCN(Cc1cccc(C(=O)OC)c1)C(=O)CN1CCC(O)CC1 |
| 39.8 | CCCC[C@@H](CCO)Nc1nc(N)nc(C)c1Cc1ccc(CC(=O)OCC2CCN(C)CC2)cc1F |
| 1580 | CCCCc1nc2c(N)nc3ccccc3c2n1CCCN(Cc1cccc(C(=O)OC)c1)C(=O)CN1CC(O)C1 |
| 25.1 | CCCC[C@@H](CCO)Nc1nc(N)nc(C)c1Cc1ccc(CC(=O)OCCCCN2CCN(C)CC2)cc1F |
| 31.6 | CCCCCNc1nc(N)nc(C)c1Cc1cccc(CC(=O)OCCCCN(C)C)c1 |
| 251 | CCCCc1nc2c(N)nc3ccccc3c2n1CCCN(CCCN1CCN(C)CC1)Cc1cccc(C(=O)OC)c1 |
| 79.4 | CCCCc1nc2c(N)nc3ccccc3c2n1CCCN(Cc1cccc(C(=O)OC)c1)C(=O)CN1CCCCC1 |
| 316 | CCCCc1nc2c(N)nc3ccccc3c2n1CCCN(Cc1cccc(C(=O)OC)c1)C1CCN(C)CC1 |
| 158 | COCCc1nc2c(N)nc3ccccc3c2n1CCCN(Cc1ccc(CC(=O)OC)cc1)C(=O)CCN(C)C |
| 1000 | CCCCc1nc2c(N)nc3ccccc3c2n1CCCN(Cc1cccc(C(=O)OC)c1)C(=O)CN1C[C@@H](C)O[C@@H](C)C1 |
| 63.1 | CCCCc1nc2c(N)nc3ccccc3c2n1CCCN(Cc1cccc(C(=O)OC)c1)C(=O)CN1CCCC1 |

| EC50 [nM] | Structure (SMILES) |
| --- | --- |
| 1260 | CCCC[C@@H](CO)Nc1nc(N)nc(C)c1Cc1ccc(CC(=O)OCCCCN(C)C)cc1 |
| 501 | CCCCc1nc2c(N)nc3ccccc3c2n1CCCN(Cc1cccc(C(=O)OC)c1)C(=O)CN1CCCN(C(C)=O)CC1 |
| 794 | CCCCCNc1nc(N)nc(C)c1CCCN(Cc1ccc(CC(=O)OC)cc1)C(=O)CC1CCN(C)CC1 |
| 251 | CCCCc1nc2c(N)nc3ccccc3c2n1CCCN(CCCN1CCOCC1)Cc1cccc(C(=O)OC)c1 |
| 79.4 | CCCCc1nc2c(N)nc3ccccc3c2n1CCCN(Cc1cccc(C(=O)OC)c1)C(=O)CN1CCN(C)CC1 |
| 631 | CCCCCNc1nc(N)nc(C)c1CCCN(Cc1ccc(CC(=O)OC)cc1)C(=O)CN1CCCCC1 |
| 251 | CCCCc1nc2c(N)nc3ccccc3c2n1CCCN(Cc1cccc(C(=O)OC)c1)C(=O)CN1CCC1 |
| 794 | CCCCc1nc2c(N)nc3ccccc3c2n1CCCN(Cc1cccc(C(=O)OC)c1)C(=O)CN1CCN(S(C)(=O)=O)CC1 |
| 79.4 | CCCCc1nc2c(N)nc3ccccc3c2n1CCCN(Cc1cccc(C(=O)OC)c1)C(=O)CN1CCCCCC1 |
| 1260 | CCCCc1nc2c(N)nc3ccccc3c2n1CCCN(Cc1cccc(C(=O)OC)c1)C(=O)CN1CCCN(C(=O)NCC)CC1 |
| 251 | CCCCc1nc2c(N)nc3ccccc3c2n1CCCN(CCCN(C)C)Cc1cccc(C(=O)OC)c1 |
| 79.4 | CCCCc1nc2c(N)nc3ccccc3c2n1CCCN(Cc1cccc(C(=O)OC)c1)C(=O)CN(CCC)CCC |
| 631 | CCCCCNc1nc(N)nc(C)c1CCCN(Cc1cccc(CC(=O)OC)c1)C(=O)CN1CCC[C@@H]1C(=O)OC |
| 158 | CCCCc1nc2c(N)nc3ccccc3c2n1CCCN(CCCN(C)CC)Cc1cccc(C(=O)OC)c1 |
| 126 | CCCCc1nc2c(N)nc3ccccc3c2n1CCCN(Cc1cccc(C(=O)OC)c1)C(=O)CN(C)CCCC |
| 398 | CCCCc1nc2c(N)nc3ccccc3c2n1CCCN(Cc1cccc(C(=O)OC)c1)C(=O)CN1CC[C@@H](O)C1 |
| 1580 | CCCCc1nc2c(N)nc3ccccc3c2n1CCCN(Cc1cccc(C(=O)OC)c1)C(=O)CN(CCO)CCO |
| 25.1 | CCCC[C@@H](CCO)Nc1nc(N)nc(C)c1Cc1ccc(CC(=O)OCCCCN(C)C)cc1 |
| 251 | CCCCc1nc2c(N)nc3ccccc3c2n1CCCN(Cc1cccc(C(=O)OC)c1)C(=O)CN1CCCN(C)CC1 |
| 631 | CCCCc1nc2c(N)nc3ccccc3c2n1CCCN(Cc1cccc(C(=O)OC)c1)C(=O)CN1CCCN(S(C)(=O)=O)CC1 |
| 200 | CCCC[C@@H](CCO)Nc1nc(N)nc(C)c1Cc1ccc(CC(=O)OCCCCN(C)C)cc1F |

Target: T2, Toll-like receptor 8 (Homo sapiens, UniProt Q9NR97)
T2 sequence (Q9NR97 whole entry): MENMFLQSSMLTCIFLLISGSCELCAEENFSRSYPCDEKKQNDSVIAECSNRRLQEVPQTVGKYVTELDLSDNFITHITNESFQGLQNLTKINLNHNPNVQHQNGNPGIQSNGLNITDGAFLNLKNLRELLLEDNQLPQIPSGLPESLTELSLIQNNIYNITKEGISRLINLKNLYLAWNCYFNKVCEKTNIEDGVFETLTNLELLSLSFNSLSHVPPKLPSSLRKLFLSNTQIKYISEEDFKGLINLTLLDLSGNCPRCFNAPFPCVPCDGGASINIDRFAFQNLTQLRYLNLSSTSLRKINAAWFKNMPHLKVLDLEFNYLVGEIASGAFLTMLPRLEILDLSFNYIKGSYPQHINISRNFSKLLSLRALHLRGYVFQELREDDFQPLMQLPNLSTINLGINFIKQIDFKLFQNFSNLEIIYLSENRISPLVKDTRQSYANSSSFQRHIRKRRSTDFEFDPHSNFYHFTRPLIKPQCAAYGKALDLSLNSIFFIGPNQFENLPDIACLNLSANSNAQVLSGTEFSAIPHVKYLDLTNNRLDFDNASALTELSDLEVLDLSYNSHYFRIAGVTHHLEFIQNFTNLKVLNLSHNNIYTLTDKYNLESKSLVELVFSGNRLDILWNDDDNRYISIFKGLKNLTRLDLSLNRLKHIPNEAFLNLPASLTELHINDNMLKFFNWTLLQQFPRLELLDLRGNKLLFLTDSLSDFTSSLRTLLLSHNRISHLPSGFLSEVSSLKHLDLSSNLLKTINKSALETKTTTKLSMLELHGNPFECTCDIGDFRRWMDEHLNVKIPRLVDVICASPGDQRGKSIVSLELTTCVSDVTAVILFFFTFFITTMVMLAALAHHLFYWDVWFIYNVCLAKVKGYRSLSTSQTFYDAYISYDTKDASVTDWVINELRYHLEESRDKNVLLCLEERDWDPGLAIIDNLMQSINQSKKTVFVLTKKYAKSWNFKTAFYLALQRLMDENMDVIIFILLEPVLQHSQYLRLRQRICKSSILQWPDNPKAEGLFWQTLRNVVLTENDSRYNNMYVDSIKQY
Experiment: Agonist activity at human TLR8 in HEK-Blue hTLR8 cells assessed as activation of NFkappaB by SEAP reporter gene based spectrophotometry assay
Format: cell-based
Conditions: not given

| EC50 [µM] | Structure (SMILES) |
| --- | --- |
| 0.88 | CCCc1nc2c(NC=O)nc3ccccc3c2s1 |

Same assay, conditions: hek-blue htlr8

| EC50 [µM] | Structure (SMILES) |
| --- | --- |
| 10.6 | CCCc1nc2c(NS(C)(=O)=O)nc3ccccc3c2s1 |
| 2.23 | CCCc1nc2c(NC(=O)CCN=[N+]=[N-])nc3ccccc3c2s1 |
| 2.77 | CC[C@H](C)c1nc2c(N)nc3ccccc3c2s1 |
| 3.88 | CCCc1nc2c(N)nc3ccc(N)cc3c2s1 |

| Structure (SMILES) | EC50 [µM] |
| --- | --- |
| CCCc1nc2c(N)nc3ccc(-n4cc([Si](C)(C)C)nn4)cc3c2s1 | 9.84 |

Target: T1, Toll-like receptor 7
Experiment: Agonist activity at recombinant human TLR7 transfected in HEK293 cells assessed as induction of SEAP production incubated overnight by SEAP reporter gene based assay
Format: cell-based
Conditions: not given

| EC50 [nM] | Structure (SMILES) |
| --- | --- |
| < 1.95 | CCC[C@@H](CCO)Nc1nc(N)nc(C)c1Cc1ccc(CN2CCCC2)cc1OC |
| 2.75 | CCC[C@@H](CCO)Nc1nc(N)nc(C)c1Cc1ccc(Cn2ccnc2)cc1OC |
| 380 | CCC[C@@H](CO)Nc1nc(N)nc(C)c1Cc1ccc(CNC2CNC2)cc1OC |
| 5.89 | CCC[C@@H](CCO)Nc1nc(N)nc(C)c1Cc1ccc(CN2CCNCC2)cc1OC |
| 95.5 | CCC[C@@H](CO)Nc1nc(N)nc(C)c1Cc1ccc(CNCCO)cc1OC |
| < 1.95 | CCC[C@@H](CCO)Nc1nc(N)nc(C)c1Cc1ccc(CN(C)CCOC)cc1OC |
| < 1.95 | CCC[C@@H](CCO)Nc1nc(N)nc(C)c1Cc1ccc(CN2CCN(C)CC2)cc1OC |
| 2.29 | CCC[C@@H](CO)Nc1nc(N)nc(C)c1Cc1ccc(CN(C)C)cc1OC |

Target: T1, Toll-like receptor 7
Experiment: Agonist activity at human TLR7 in HEK-Blue hTLR7 cells assessed as activation of NFkappaB by SEAP reporter gene based spectrophotometry assay
Format: cell-based
Conditions: not given

| EC50 [nM] | Structure (SMILES) |
| --- | --- |
| 320 | CCCCc1nc2c(N)nc(NCC3CCCCC3)cc2n1Cc1ccccc1 |
| 75 | CCCCc1nc2c(N)nc(NCc3ccc(OC)cc3)cc2n1Cc1ccccc1 |
| 250 | CCCCc1nc2c(N)nc(NCc3cccnc3)cc2n1Cc1ccccc1 |

Same assay, conditions: hek-blue htlr7

| EC50 [nM] | Structure (SMILES) |
| --- | --- |
| 2540 | CCCCc1nc2c(NC=O)nc3ccccc3c2s1 |
| 10200 | Cc1nc2c(N)nc3ccccc3c2s1 |
